Reference: a compilation of properties of binary mixtures (doi:10.1016/j.fluid.2020.112621)

Assay: xn = mol fraction of the nth substance listed
Conditions: 101 kPa

CCCCC(=O)[O-].CC[NH+](CC)CCO + CCCC[n+]1ccn(C)c1.COP(=O)([O-])OC
viscosity [mPa·s]
Conditions	x1 = 0.1018	x1 = 0.1952	x1 = 0.3029	x1 = 0.4003	x1 = 0.4973	x1 = 0.5989	x1 = 0.6984	x1 = 0.7978	x1 = 0.8868	x1 = 1
278.15 K	2088	1185.7	676	440	318.2	250.8	–	190.6	171.4	156.6
283.15 K	1327.5	786	464	309	–	180.3	156.2	137.6	123.9	113.1
288.15 K	–	536	327.1	222.5	165.5	132.6	115	101.5	91.4	83.2
293.15 K	–	376	236.3	163.8	123.3	99.4	86.4	76.3	68.8	62.4
298.15 K	416	–	174.8	123.2	93.8	–	66.1	–	52.75	47.75
303.15 K	298.4	–	–	94.6	72.7	59.21	51.52	45.65	41.15	–
308.15 K	219.3	–	101.6	73.8	57.24	–	40.78	36.17	32.59	29.31
313.15 K	164.7	115.4	–	–	45.77	–	32.76	29.07	–	23.48
318.15 K	126	–	63.2	–	37.12	–	–	23.66	21.33	19.07
323.15 K	98.1	71.4	50.96	38.46	30.5	25.23	21.99	–	17.59	15.68
328.15 K	77.7	57.48	41.66	31.79	–	–	–	16.26	14.66	13.03
333.15 K	–	46.87	–	–	21.3	17.73	15.45	13.7	–	–
338.15 K	50.75	–	28.83	22.42	–	–	13.14	11.64	10.49	9.27
343.15 K	41.81	32.29	24.35	–	–	12.94	–	9.98	8.99	7.91
348.15 K	34.84	27.23	20.77	16.43	13.36	–	9.74	8.63	7.76	6.81
353.15 K	29.34	23.18	17.87	14.23	11.63	–	8.48	7.51	6.75	5.9
358.15 K	24.95	19.9	15.5	12.43	10.19	8.56	7.44	6.58	–	–
363.15 K	–	17.23	13.54	10.92	8.99	7.56	–	5.81	5.2	4.52
368.15 K	18.52	15.03	11.92	9.66	7.98	6.72	5.83	5.15	4.61	3.99
373.15 K	16.15	13.21	10.55	–	7.12	6	5.2	4.59	4.1	–

CCCC[n+]1ccn(C)c1.COP(=O)([O-])OC + CCCCC(=O)[O-].CC[NH+](CC)CCO
x2 = 0
Conditions	viscosity [mPa·s]
278.15 K	3503
283.15 K	2142
288.15 K	1361.1
293.15 K	895
298.15 K	609
308.15 K	305.8
313.15 K	224.9
318.15 K	168.9
333.15 K	79.9
338.15 K	64.25
343.15 K	52.35
353.15 K	36.02
363.15 K	25.86

CCC(=O)O.CCC(=O)[O-].CC[NH+](CC)CCO + CCCC[n+]1ccn(C)c1.COP(=O)([O-])OC
viscosity [mPa·s]
Conditions	x1 = 0.08	x1 = 0.1549	x1 = 0.2364	x1 = 0.3281	x1 = 0.4183	x1 = 0.4953	x1 = 0.6252	x1 = 0.7416	x1 = 0.8667	x1 = 1
278.15 K	–	1099.1	655	428	329	294	241.4	208.2	184.2	244
283.15 K	1248.1	726	–	297	230.3	–	–	–	131	169
288.15 K	822	494	311	211.1	165.3	147.5	–	107.1	95.3	120.7
293.15 K	559	346	223.3	–	121.5	108.6	91.7	79.5	–	88.3
298.15 K	391	248.6	164.2	114.9	91.4	81.8	69.5	–	53.8	–
303.15 K	–	183.2	–	87.6	–	62.8	53.7	46.6	–	50.6
308.15 K	206.6	137.9	94.7	68	–	49.2	42.2	36.7	–	39.4
313.15 K	155.3	105.8	73.9	–	43.7	–	33.7	29.3	26.3	31.2
318.15 K	119	82.7	58.7	43.2	35.28	31.69	–	23.81	21.38	25.1
323.15 K	92.7	65.7	–	35.21	28.91	–	22.51	19.58	17.6	20.5
328.15 K	73.5	52.95	–	29.06	23.98	21.58	18.74	–	–	16.89
333.15 K	59.07	43.24	31.98	24.27	20.13	–	15.77	13.7	–	–
338.15 K	–	35.76	–	20.49	17.07	15.33	–	–	10.47	11.89
343.15 K	39.67	29.9	22.63	17.47	14.6	–	11.5	9.98	8.98	10.12
348.15 K	33.08	–	19.32	15.03	–	11.29	–	8.63	–	8.68
353.15 K	27.89	–	16.64	13.04	–	9.81	8.67	7.52	6.75	7.5
358.15 K	23.73	18.56	14.45	11.4	–	–	–	6.59	5.91	6.52
363.15 K	20.39	16.1	12.65	10.04	8.5	7.58	6.72	–	5.21	–
368.15 K	–	–	11.15	8.9	7.55	6.73	5.98	–	4.62	5.01
373.15 K	15.41	12.4	9.89	7.94	6.75	6.01	5.34	–	4.11	–

CCCC[n+]1ccn(C)c1.COP(=O)([O-])OC + CCCCCC(=O)O.CCCCCC(=O)[O-].CC[NH+](CC)CCO
x2 = 0
Conditions	viscosity [mPa·s]
278.15 K	3503
283.15 K	2142
288.15 K	1361.1
293.15 K	895
308.15 K	305.8
313.15 K	224.9
323.15 K	129.4
328.15 K	100.9
338.15 K	64.25
343.15 K	52.35
348.15 K	43.18
353.15 K	36.02
368.15 K	22.22
373.15 K	19.25

CC(=O)[O-].CCCC[NH2+]CCO + CCCC[n+]1ccn(C)c1.O=S(=O)([N-]S(=O)(=O)C(F)(F)F)C(F)(F)F
viscosity [mPa·s]
Conditions	x1 = 0.1012	x1 = 0.2257	x1 = 0.3002	x1 = 0.423	x1 = 0.4998	x1 = 0.6018	x1 = 0.6987	x1 = 0.8008	x1 = 0.901	x1 = 1
278.15 K	–	–	–	–	–	–	–	–	–	6138
283.15 K	–	183.1	226.7	353	481	745	1144.5	–	2806	–
288.15 K	96.2	134.7	–	248.3	331.5	499	745	–	1734.8	2230
293.15 K	74.29	101.5	121.9	179.1	234.7	344	501	765	1109.3	1412.3
298.15 K	58.45	–	92.4	132.2	170.1	243.1	346	–	–	–
303.15 K	46.77	61.09	71.45	99.7	–	176	244.7	–	495	617
308.15 K	38.01	48.63	–	76.6	95.3	130.1	177.2	251.7	343	–
313.15 K	31.32	39.3	44.89	59.83	–	98.1	–	–	–	–
318.15 K	26.13	–	36.38	47.48	57.42	75.3	–	134.2	–	212.7
323.15 K	22.05	26.72	29.87	38.23	45.61	58.7	–	100.8	130.4	155.3
328.15 K	18.81	–	24.83	31.18	36.74	–	58.7	77	–	115.3
333.15 K	16.19	19	20.86	25.75	29.98	37.29	46.37	59.7	74.8	87
338.15 K	14.06	16.27	17.7	21.49	24.74	30.3	–	47.02	58	66.7
343.15 K	12.31	–	15.16	18.12	–	24.92	30.07	37.51	–	–
348.15 K	10.85	12.23	13.09	–	17.4	20.7	24.65	30.28	36.31	40.87
353.15 K	9.63	10.72	11.4	13.24	14.79	17.37	20.42	24.73	–	–
358.15 K	8.6	9.47	–	–	–	14.71	17.08	20.41	23.84	26.29
363.15 K	7.73	8.41	8.82	–	10.96	12.57	14.42	17	19.63	–
368.15 K	6.98	7.51	7.83	8.76	9.54	10.81	12.27	–	16.31	–
373.15 K	6.33	6.75	–	–	–	9.37	10.52	12.11	13.67	–

CCCC[n+]1ccn(C)c1.O=S(=O)([N-]S(=O)(=O)C(F)(F)F)C(F)(F)F + CC(=O)[O-].CCCC[NH2+]CCO
x2 = 0
Conditions	viscosity [mPa·s]
283.15 K	109
298.15 K	51.73
303.15 K	41.8
308.15 K	34.3
313.15 K	28.55
323.15 K	20.5
328.15 K	17.64
333.15 K	15.33
338.15 K	13.43
343.15 K	11.85
348.15 K	10.53
353.15 K	9.41
358.15 K	8.46
363.15 K	7.65
368.15 K	6.95
373.15 K	6.34

CCCC[n+]1ccn(C)c1.COP(=O)([O-])OC + CCC(=O)O.CCC(=O)[O-].CC[NH+](CC)CCO
x2 = 0
Conditions	viscosity [mPa·s]
278.15 K	3503
288.15 K	1361.1
293.15 K	895
298.15 K	609
303.15 K	426
308.15 K	305.8
313.15 K	224.9
318.15 K	168.9
323.15 K	129.4
333.15 K	79.9
338.15 K	64.25
348.15 K	43.18
353.15 K	36.02
358.15 K	30.38
363.15 K	25.86
368.15 K	22.22
